Reference: PubChem BioAssay (NCI)
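Five compound concentrations were applied to cells in 96-well plates for 48 hours; endpoints were derived by simple linear interpolation of the resulting dose-response curve. GI50 is the concentration that inhibits growth by half. TGI: concentration producing complete growth inhibition.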

Legend:
Assay in all cases: growth of human tumour cells (NCI), 48 h
SF-539 CNS = test system: SF-539 CNS
NCI-H460 lung = test system: NCI-H460 lung
A549 NSCLC = test system: A549 NSCLC
786-0 renal = test system: 786-0 renal
EKVX NSCLC = test system: EKVX NSCLC
SN12C renal = test system: SN12C renal
PC-3 prostate = test system: PC-3 prostate
NCI/ADR-RES ovarian = test system: NCI/ADR-RES ovarian
HCT-15 colon = test system: HCT-15 colon
SK-MEL-28 melanoma = test system: SK-MEL-28 melanoma
HT29 colon = test system: HT29 colon
SR leukemia = test system: SR leukemia
COLO 205 colon = test system: COLO 205 colon
A498 renal = test system: A498 renal
UACC-257 melanoma = test system: UACC-257 melanoma
CAKI-1 renal = test system: CAKI-1 renal
M14 melanoma = test system: M14 melanoma
U251 CNS = test system: U251 CNS

Compound | TGI (SF-539 CNS) [µM] | TGI (NCI-H460 lung) [µM] | TGI (A549 NSCLC) [µM] | TGI (786-0 renal) [µM] | TGI (EKVX NSCLC) [µM] | TGI (SN12C renal) [µM] | TGI (PC-3 prostate) [µM] | TGI (NCI/ADR-RES ovarian) [µM] | TGI (HCT-15 colon) [µM] | TGI (SK-MEL-28 melanoma) [µM] | TGI (HT29 colon) [µM] | TGI (SR leukemia) [µM] | TGI (COLO 205 colon) [µM] | TGI (A498 renal) [µM] | TGI (UACC-257 melanoma) [µM] | TGI (CAKI-1 renal) [µM] | TGI (M14 melanoma) [µM] | TGI (U251 CNS) [µM] | GI50 (SF-539 CNS) [µM] | GI50 (SN12C renal) [µM]
Oc1ccc2ccccc2c1-c1c(Nc2ccccc2)ccc2ccccc12 | 29.7 | 39.9 | 38.9 | 34.2 | 40 | > 61.2 | 36.8 | > 51.3 | > 56.4 | 27.4 | > 53.5 | 51.6 | 38 | 36.2 | 40.3 | 28.1 | 24.4 | 52 |  | 
CC(=O)c1ccc(N2CCN(c3c(O)c4c(c(O)c3Cl)C(=O)C=CC4=O)CC2)cc1 | 30.2 | 41 | 34.8 | 27.2 | 46.7 |  | 19.1 | 88.5 | > 100 | 16.8 |  | 8.33 | 8.91 | 33.7 | 24.1 | 11.8 | 6.76 | 11.9 |  | 
Cn1c(N(CCO)CCO)cnc1[N+](=O)[O-] | > 100 | > 100 | > 100 | > 100 | > 100 |  | > 100 | > 100 | > 100 |  | > 100 | > 100 | > 100 | > 100 | > 100 | > 100 | > 100 | > 100 |  | 
NC(=O)NC(CC(=O)O)C(=O)O (configuration not stated) |  | > 100 | > 100 | > 100 | > 100 | > 100 | > 100 | > 100 | > 100 | > 100 | > 100 | > 100 |  | > 100 | > 100 | > 100 | > 100 | > 100 |  | 
COc1ccc(/C=C/C(=O)c2nc3ccccc3[nH]2)cc1 | 26.7 | 47.5 | > 81.8 | 32.2 | 46 | 73.9 | 87.6 | 53.5 | > 40.5 | 65.6 | 22.9 | > 27.1 | 26 | > 82.7 | 52 | > 100 | > 59.1 | 37.3 |  | 
Oc1ccc(-c2c3ccccc3c(-c3ccc(OCCBr)cc3)c3ccccc23)cc1 | 32.4 | > 100 | 69.1 | 44.5 | > 100 | 59.9 | 73.2 | 75.6 | 77.4 | 51 | 43.2 | 92.6 | 96.9 | 40 | 54.5 | 67.1 | 37 | 53.3 |  | 
CCCCCCNC(=O)c1cc(C#Cc2cc(OC)ccc2OC)ccc1OC | > 100 | > 100 | > 100 | > 100 | > 100 | > 100 | > 100 | > 100 | > 100 | > 100 | > 100 | > 100 | > 100 | > 100 | > 100 | > 100 | > 100 | > 100 | > 100 | > 100
